Like-named read-outs stand apart in the source and are kept apart here.
Tests used:
[1] = test system: cerulein-induced acute pancreatitis; assay: In vivo efficacy, cerulein-induced acute pancreatitis murine model; parameters: species or system C57BL/6 male mice
Text: Forty-one male C57BL/6 mice (8-week-old; approximately 24 g) were supplied by Envigo (Barcelona, Spain) (Ref 16512). During the experimental procedure, the animals were identified with a permanent marker (tail code numbers). Upon arrival, the animals were housed in groups of 8–9 animals/cage in polysulfone maintenance cages (480 × 265 × 210 mm, with a surface area of 940 cm^2) with wire tops and wood chip bedding. The animals were kept in an environmentally controlled room (ventilation, temperature 22 ± 2 °C, and humidity 35–65%) on a 12 h light/dark cycle. They underwent a period of 7 days of acclimatization between the date of arrival and the start of the procedure. […] The maintenance diet was supplied by Harlan Interfauna Ibérica S.L. (2018 Harlan Teklad Global Diets). Diet was provided to the animals ad libitum, but they were fasted overnight before the first cerulein injection, and food was replaced after the last cerulein injection. Tap water was supplied by CASSA (Servei d’Aigües de Sabadell) ad libitum. The animals were maintained in accordance with the European Directive for the Protection of Vertebrate Animals Used for Experimental and other Scientific Purposes (86/609/EU). Decree 214/1997 of 30th July. Ministry of agriculture, livestock and fishing of the Autonomous Government of Catalonia, Spain. Royal Decree 53/2013 of 1st February (Spain). All the experimental procedures were approved by the Ethical Committee on human and animal experimentation (CEEAH) of Universitat Autònoma de Barcelona (UAB) (procedure number: 4107) and by the Animal Experimentation Commission of the Generalitat de Catalunya (Catalan Government) (DAAM: 10146). The test item was dissolved in vehicle 10% 2-hydroxypropyl-β-cyclodextrin (CAS 128446-35-5) Sigma-Aldrich (Ref 332607). The vehicle was prepared the day before and kept at 4 °C. Pancreatitis induction: Mice (n = 41) were weighed, identified by a distinct number at the base of the tail, and fasted overnight. Cerulein (cerulein and cerulein + 22 groups) (50 μg/kg, prepared in 0.9% NaCl) or vehicle (0.9% NaCl) (control group) were intraperitoneally injected (V = 5 mL/kg) 12 consecutive times, at 1 h intervals (h = 0–11). Food was replaced after the last injection. A satellite experiment was designed where animals (n = 3) were distributed in control, cerulein, and cerulein + 22-treated groups. Pancreatitis was induced by seven injections of cerulein (or vehicle in the control group) at 1 h intervals (h = 0–6). Treatments: the test item was administered intraperitoneally in one injection to 22_03 (0.3 mg/kg) and 22_01 (0.1 mg/kg) groups at 14 h after the first cerulein injection. Animals from the control and cerulein groups received vehicle administration (10% 2-hydroxypropyl-β-cyclodextrin) (V = 10 mL/kg). Extra groups were treated 2 h after the first cerulein injection: 22 (0.3 mg/kg), control, and cerulein groups (10% 2-hydroxypropyl-β-cyclodextrin). Study end: 24 h after the first cerulein injection, animals were weighed and anesthetized with isoflurane. Blood was collected from the vena cava in an Eppendorf containing K2-EDTA and centrifuged at 10,000 rpm for 5 min for plasma collection. Plasma was stored at −80 °C until analysis. The mice were sacrificed by cervical dislocation and the pancreases were dissected and weighed. Pancreases from three animals were frozen in liquid N2 and stored at −80 °C until analysis. Pancreases from five mice were sectioned and one part was placed in 10% formalin and sent to Anapath (Granada, Spain) for histology analysis and the other was immediately placed in RNAse-free eppendorfs, frozen in N2, and stored at −80 °C for gene expression assays.
Pancreatic samples were treated with increasing grade alcohols and two xylol baths and embedded in paraffin. They were subsequently cut using a microtome and processed for staining. […]

[2] = Concentrations in plasma and pancreatic tissue in the efficacy study; format: in vivo, C57BL/6 male mice; conditions: 10 h post-administration; for concentration at 10 h: male, C57BL/6, mouse, intraperitoneal
Text: During the experimental procedure, the animals were identified with a permanent marker (tail code numbers). […] They underwent a period of 7 days of acclimatization between the date of arrival and the start of the procedure. […] Diet was provided to the animals ad libitum, but they were fasted overnight before the first cerulein injection, and food was replaced after the last cerulein injection. Tap water was supplied by CASSA (Servei d’Aigües de Sabadell) ad libitum. […] Ministry of agriculture, livestock and fishing of the Autonomous Government of Catalonia, Spain. […] The vehicle was prepared the day before and kept at 4 °C. Pancreatitis induction: Mice (n = 41) were weighed, identified by a distinct number at the base of the tail, and fasted overnight. Cerulein (cerulein and cerulein + 22 groups) (50 μg/kg, prepared in 0.9% NaCl) or vehicle (0.9% NaCl) (control group) were intraperitoneally injected (V = 5 mL/kg) 12 consecutive times, at 1 h intervals (h = 0–11). Food was replaced after the last injection. A satellite experiment was designed where animals (n = 3) were distributed in control, cerulein, and cerulein + 22-treated groups. Pancreatitis was induced by seven injections of cerulein (or vehicle in the control group) at 1 h intervals (h = 0–6). […] Animals from the control and cerulein groups received vehicle administration (10% 2-hydroxypropyl-β-cyclodextrin) (V = 10 mL/kg). Extra groups were treated 2 h after the first cerulein injection: 22 (0.3 mg/kg), control, and cerulein groups (10% 2-hydroxypropyl-β-cyclodextrin). […] Blood was collected from the vena cava in an Eppendorf containing K2-EDTA and centrifuged at 10,000 rpm for 5 min for plasma collection. Plasma was stored at −80 °C until analysis. The mice were sacrificed by cervical dislocation and the pancreases were dissected and weighed. Pancreases from three animals were frozen in liquid N2 and stored at −80 °C until analysis. Pancreases from five mice were sectioned and one part was placed in 10% formalin and sent to Anapath (Granada, Spain) for histology analysis and the other was immediately placed in RNAse-free eppendorfs, frozen in N2, and stored at −80 °C for gene expression assays.

[3] = Cerulein + 22 (0.3 mg/Kg), samples 1-5, score 0 (no changes) to 4 (very serious)

O=C(NC12CC3CC(Cl)(CC(C1)c1ccccc13)C2)N[C@H]1CC[C@H](Oc2ccc(C(=O)O)cc2)CC1 [Compound 22, 4-[((1r,4r)-4-(3-(9-Chloro-5,6,8,9,10,11-hexahydro-7H-5,9:7,11-dimethanobenzo[9]annulen-7-yl)ureido)cyclohexyl)oxy]benzoic Acid]
body weight change at the end of the study ([1]; 22 0.1 mg/kg IP single dose, did not reach statistical significance): increased body weight | body weight change at the end of the study ([1]; 22 0.3 mg/kg IP single dose, p < 0.01 vs Cerulein group): increased body weight | histologic score: Hemorrhage ([1]; Cerulein + 22 (0.1 mg/Kg), samples 1-5, score 0 (no changes) to 4 (very serious)): 0 | histologic score: Hemorrhage [1, 3]: 0 | histologic score: Mononuclear inflammatory cells [1, 3]: 0 | histologic score: Necrosis [1, 3]: 0 | histologic analysis of pancreas, effect on cerulein-induced damage ([1]; both doses (0.1 and 0.3 mg/kg)): ameliorated cerulein-induced effects | histologic analysis of pancreas, effect on cerulein-induced damage ([1]; higher dose (0.3 mg/kg)): more efficiently reversed the pancreatic damage, edema, and neutrophil infiltration | concentration in pancreatic tissues ([2]; 0.1 mg/kg IP): no amount of 22 was detected | concentration at 10 h ([2]; pancreas, 0.3 mg/kg IP, read-out: concentration in pancreas): 29.9 ng/g | concentration at 10 h ([2]; plasma, 0.1 mg/kg IP, read-out: plasma level): 14 nM | concentration at 10 h ([2]; plasma, 0.3 mg/kg IP, read-out: plasma level): 175 nM

— paper PMC8634379, “From the Design to the In Vivo Evaluation of Benzohomoadamantane-Derived Soluble Epoxide Hydrolase Inhibitors for the Treatment of Acute Pancreatitis” (Journal of Medicinal Chemistry, 2021)
